Test results published in publication PMC8371461 (Frontiers in Pharmacology, 2021).

What was measured:
PRKD3 = biological target: T1, PRKD3 (Homo sapiens, UniProt O94806); assay: kinome scan; format: binding; conditions: 10 µM
T1 construct: purchased DiscoverX (KINOMEscan)

ARK5 = biological target: T2, ARK5 (Homo sapiens, UniProt O60285); assay: kinome scan; format: binding; conditions: 10 µM
T2 construct: purchased DiscoverX (KINOMEscan)

[1] = biological target: T3, RSK3(Kin.Dom.2-C-terminal) (Homo sapiens, UniProt Q15349); assay: kinome scan; format: binding; conditions: 10 µM
T3 construct: RSK3(Kin.Dom.2-C-terminal); purchased DiscoverX (KINOMEscan)

ULK1 = biological target: T4, ULK1 (Homo sapiens, UniProt O75385); assay: kinome scan; format: binding; conditions: 10 µM
T4 construct: purchased DiscoverX (KINOMEscan)

MAP4K3 = biological target: T5, MAP4K3 (Homo sapiens, UniProt Q8IVH8); assay: kinome scan; format: binding; conditions: 10 µM
T5 construct: purchased DiscoverX (KINOMEscan)

LKB1 = biological target: T6, LKB1 (Homo sapiens, UniProt Q15831); assay: kinome scan; format: binding; conditions: 10 µM
T6 construct: purchased DiscoverX (KINOMEscan)

ABL1-nonphosphorylated = biological target: T7, ABL1-nonphosphorylated (Homo sapiens, UniProt P00519); assay: kinome scan; format: binding; conditions: 10 µM
T7 construct: purchased DiscoverX (KINOMEscan)

FAK = biological target: T8, FAK (Homo sapiens, UniProt Q05397); assay: kinome scan; format: binding; conditions: 10 µM
T8 construct: purchased DiscoverX (KINOMEscan)

YANK1 = biological target: T9, YANK1 (Homo sapiens, UniProt Q8WU08); assay: kinome scan; format: binding; conditions: 10 µM
T9 construct: purchased DiscoverX (KINOMEscan)

LATS1 = biological target: T10, LATS1 (Homo sapiens, UniProt O95835); assay: kinome scan; format: binding; conditions: 10 µM
T10 construct: purchased DiscoverX (KINOMEscan)

TESK1 = biological target: T11, TESK1 (Homo sapiens, UniProt Q15569); assay: kinome scan; format: binding; conditions: 10 µM
T11 construct: purchased DiscoverX (KINOMEscan)

PIK3CA(H1047Y) = biological target: T12, PIK3CA(H1047Y) (Homo sapiens, UniProt P42336, H1047Y); assay: kinome scan; format: binding; conditions: 10 µM
T12 construct: purchased DiscoverX (KINOMEscan)

PIP5K2B = biological target: T13, PIP5K2B (Homo sapiens, UniProt P78356); assay: kinome scan; format: binding; conditions: 10 µM
T13 construct: purchased DiscoverX (KINOMEscan)

CDK8 = biological target: T14, CDK8 (Homo sapiens, UniProt P49336); assay: kinome scan; format: binding; conditions: 10 µM
T14 construct: purchased DiscoverX (KINOMEscan)
T14 sequence (P49336 whole entry): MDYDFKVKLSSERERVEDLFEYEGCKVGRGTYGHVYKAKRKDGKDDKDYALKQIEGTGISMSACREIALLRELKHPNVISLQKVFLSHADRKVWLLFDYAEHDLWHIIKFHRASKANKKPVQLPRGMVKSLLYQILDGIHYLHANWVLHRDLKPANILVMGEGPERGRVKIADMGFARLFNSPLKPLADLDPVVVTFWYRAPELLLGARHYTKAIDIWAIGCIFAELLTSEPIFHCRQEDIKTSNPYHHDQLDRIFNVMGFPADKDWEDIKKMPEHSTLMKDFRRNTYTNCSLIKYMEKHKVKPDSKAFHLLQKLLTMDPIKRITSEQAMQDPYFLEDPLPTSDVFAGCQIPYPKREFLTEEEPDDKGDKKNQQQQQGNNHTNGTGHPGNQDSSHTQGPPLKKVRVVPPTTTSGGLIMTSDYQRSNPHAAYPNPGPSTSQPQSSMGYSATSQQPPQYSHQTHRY

TYK2 = TYK2 (Homo sapiens, UniProt P29597); assay: Kd select analysis (DiscoverX); format: binding
TYK2, sequence (P29597 897-1176): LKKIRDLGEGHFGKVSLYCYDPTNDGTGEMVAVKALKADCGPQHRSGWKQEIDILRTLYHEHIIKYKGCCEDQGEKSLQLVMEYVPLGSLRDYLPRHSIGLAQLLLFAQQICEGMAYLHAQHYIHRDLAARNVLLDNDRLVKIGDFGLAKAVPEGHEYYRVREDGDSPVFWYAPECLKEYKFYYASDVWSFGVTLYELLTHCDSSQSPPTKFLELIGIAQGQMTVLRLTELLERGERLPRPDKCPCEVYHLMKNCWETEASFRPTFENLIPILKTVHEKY
Procedure: Hits are identified by an ultra-sensitive quantitative PCR detecting the specific DNA tag linked to each kinase (Supplementary Figure S2). The drug is used at a concentration of 10 µM and results are expressed as the percentage of signal (kinase PCR detection) with respect to DMSO control conditions. […] Interactions between 0 and 20% of reduction were considered to be the most significant ones.

SgK110 = biological target: T15, SgK110 (Homo sapiens, UniProt P0C264); assay: kinome scan; format: binding; conditions: 10 µM
T15 construct: purchased DiscoverX (KINOMEscan)
T15 sequence (P0C264 whole entry): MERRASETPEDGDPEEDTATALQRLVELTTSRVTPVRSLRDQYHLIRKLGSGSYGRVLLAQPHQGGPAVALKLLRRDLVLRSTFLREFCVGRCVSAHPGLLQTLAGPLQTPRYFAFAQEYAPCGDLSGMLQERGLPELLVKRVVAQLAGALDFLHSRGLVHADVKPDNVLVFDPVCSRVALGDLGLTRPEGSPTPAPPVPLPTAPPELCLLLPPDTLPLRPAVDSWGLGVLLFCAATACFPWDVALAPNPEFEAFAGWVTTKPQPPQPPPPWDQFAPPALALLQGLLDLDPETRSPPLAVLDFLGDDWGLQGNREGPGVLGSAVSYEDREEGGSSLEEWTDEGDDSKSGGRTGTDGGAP

PCTK3 = biological target: T16, PCTK3 (Homo sapiens, UniProt Q07002); assay: kinome scan; format: binding; conditions: 10 µM
T16 construct: purchased DiscoverX (KINOMEscan)

PDPK1 = biological target: T17, PDPK1 (Homo sapiens, UniProt O15530); assay: kinome scan; format: binding; conditions: 10 µM
T17 construct: purchased DiscoverX (KINOMEscan)

TGFBR2 = biological target: T18, TGFBR2 (Homo sapiens, UniProt P37173); assay: kinome scan; format: binding; conditions: 10 µM
T18 construct: purchased DiscoverX (KINOMEscan)
T18 sequence (P37173 23-567): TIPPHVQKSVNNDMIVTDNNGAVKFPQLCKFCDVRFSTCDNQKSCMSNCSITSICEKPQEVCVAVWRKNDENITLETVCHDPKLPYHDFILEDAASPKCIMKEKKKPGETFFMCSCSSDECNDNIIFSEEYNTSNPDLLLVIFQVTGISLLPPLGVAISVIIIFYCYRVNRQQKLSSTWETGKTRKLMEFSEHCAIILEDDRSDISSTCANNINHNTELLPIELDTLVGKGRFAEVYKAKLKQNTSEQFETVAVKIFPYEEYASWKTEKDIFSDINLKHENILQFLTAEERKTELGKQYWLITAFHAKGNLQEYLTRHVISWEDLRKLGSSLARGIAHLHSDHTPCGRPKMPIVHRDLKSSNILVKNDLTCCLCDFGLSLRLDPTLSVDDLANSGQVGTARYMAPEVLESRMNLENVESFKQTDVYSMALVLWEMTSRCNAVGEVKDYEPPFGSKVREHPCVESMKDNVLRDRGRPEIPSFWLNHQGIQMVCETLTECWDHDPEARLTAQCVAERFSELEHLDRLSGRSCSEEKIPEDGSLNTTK

LRRK2 = biological target: T19, LRRK2 (Homo sapiens, UniProt Q5S007); assay: kinome scan; format: binding; conditions: 10 µM
T19 construct: purchased DiscoverX (KINOMEscan)

CLK3 = biological target: T20, CLK3 (Homo sapiens, UniProt P49761); assay: kinome scan; format: binding; conditions: 10 µM
T20 construct: purchased DiscoverX (KINOMEscan)

RIPK5 = biological target: T21, RIPK5 (Homo sapiens, UniProt Q6XUX3); assay: kinome scan; format: binding; conditions: 10 µM
T21 construct: purchased DiscoverX (KINOMEscan)

CDK3 = biological target: T22, CDK3 (Homo sapiens, UniProt Q00526); assay: kinome scan; format: binding; conditions: 10 µM
T22 construct: purchased DiscoverX (KINOMEscan)

MRCKA = biological target: T23, MRCKA (Homo sapiens, UniProt Q5VT25); assay: kinome scan; format: binding; conditions: 10 µM
T23 construct: purchased DiscoverX (KINOMEscan)

AURKC = biological target: T24, AURKC (Homo sapiens, UniProt Q9UQB9); assay: kinome scan; format: binding; conditions: 10 µM
T24 construct: purchased DiscoverX (KINOMEscan)

ASK1 = biological target: T25, ASK1 (Homo sapiens, UniProt Q99683); assay: kinome scan; format: binding; conditions: 10 µM
T25 construct: purchased DiscoverX (KINOMEscan)

STK39 = biological target: T26, STK39 (Homo sapiens, UniProt Q9UEW8); assay: kinome scan; format: binding; conditions: 10 µM
T26 construct: purchased DiscoverX (KINOMEscan)

CSNK1G1 = biological target: T27, CSNK1G1 (Homo sapiens, UniProt Q9HCP0); assay: kinome scan; format: binding; conditions: 10 µM
T27 construct: purchased DiscoverX (KINOMEscan)

PRKX = biological target: T28, PRKX (Homo sapiens, UniProt P51817); assay: kinome scan; format: binding; conditions: 10 µM
T28 construct: purchased DiscoverX (KINOMEscan)

PHKG2 = biological target: T29, PHKG2 (Homo sapiens, UniProt P15735); assay: kinome scan; format: binding; conditions: 10 µM
T29 construct: purchased DiscoverX (KINOMEscan)
T29 sequence (P15735 whole entry): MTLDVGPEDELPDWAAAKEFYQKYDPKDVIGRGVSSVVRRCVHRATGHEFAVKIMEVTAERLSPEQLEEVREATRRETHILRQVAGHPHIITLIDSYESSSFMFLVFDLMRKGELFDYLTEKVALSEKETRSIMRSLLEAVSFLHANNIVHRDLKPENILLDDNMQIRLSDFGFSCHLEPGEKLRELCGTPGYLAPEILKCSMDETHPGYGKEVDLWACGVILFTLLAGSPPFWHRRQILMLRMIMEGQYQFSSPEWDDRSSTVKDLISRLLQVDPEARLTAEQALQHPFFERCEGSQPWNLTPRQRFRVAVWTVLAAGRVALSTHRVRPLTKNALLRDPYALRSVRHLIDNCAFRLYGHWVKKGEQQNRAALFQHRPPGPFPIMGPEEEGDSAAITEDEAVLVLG

[2] = biological target: T30, RSK2(Kin.Dom.1-N-terminal) (Homo sapiens, UniProt P51812); assay: kinome scan; format: binding; conditions: 10 µM
T30 construct: RSK2(Kin.Dom.1-N-terminal); purchased DiscoverX (KINOMEscan)

IGF1R = biological target: T31, IGF1R (Homo sapiens, UniProt P08069); assay: kinome scan; format: binding; conditions: 10 µM
T31 construct: purchased DiscoverX (KINOMEscan)

PKN2 = biological target: T32, PKN2 (Homo sapiens, UniProt Q16513); assay: kinome scan; format: binding; conditions: 10 µM
T32 construct: purchased DiscoverX (KINOMEscan)
T32 sequence (Q16513 whole entry): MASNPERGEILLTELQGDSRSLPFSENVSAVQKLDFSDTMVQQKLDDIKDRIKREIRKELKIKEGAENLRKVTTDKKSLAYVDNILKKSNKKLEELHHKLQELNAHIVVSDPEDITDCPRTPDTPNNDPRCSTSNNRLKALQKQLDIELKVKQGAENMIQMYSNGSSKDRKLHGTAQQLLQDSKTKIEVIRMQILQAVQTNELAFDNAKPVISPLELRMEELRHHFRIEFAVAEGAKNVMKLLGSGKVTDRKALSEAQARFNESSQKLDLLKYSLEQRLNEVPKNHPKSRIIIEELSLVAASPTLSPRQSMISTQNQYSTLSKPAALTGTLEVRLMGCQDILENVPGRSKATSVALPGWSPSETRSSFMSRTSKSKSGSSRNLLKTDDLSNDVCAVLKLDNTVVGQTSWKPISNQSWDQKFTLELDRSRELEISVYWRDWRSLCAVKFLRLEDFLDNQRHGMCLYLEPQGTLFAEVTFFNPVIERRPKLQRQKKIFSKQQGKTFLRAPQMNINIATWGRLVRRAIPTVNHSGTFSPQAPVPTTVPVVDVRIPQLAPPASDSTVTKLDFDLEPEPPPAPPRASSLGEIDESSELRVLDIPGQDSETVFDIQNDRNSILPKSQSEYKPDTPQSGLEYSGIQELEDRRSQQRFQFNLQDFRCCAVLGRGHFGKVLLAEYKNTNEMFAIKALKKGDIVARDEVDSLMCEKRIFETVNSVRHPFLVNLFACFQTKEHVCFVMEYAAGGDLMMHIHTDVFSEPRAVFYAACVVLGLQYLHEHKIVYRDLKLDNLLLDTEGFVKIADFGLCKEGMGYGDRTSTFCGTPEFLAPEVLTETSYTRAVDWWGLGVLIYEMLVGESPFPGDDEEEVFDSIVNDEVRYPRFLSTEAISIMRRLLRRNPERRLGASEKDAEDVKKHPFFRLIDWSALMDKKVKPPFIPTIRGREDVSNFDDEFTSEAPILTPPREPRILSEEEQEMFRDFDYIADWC

Cruzain = system: Cruzain; set-up: method as in CHEMBL1613769; conditions: reported activity, data mining; ref CHEMBL1613769; cited from earlier work
AKT1 = biological target: T33, AKT1 (Homo sapiens, UniProt P31749); assay: kinome scan; format: binding; conditions: 10 µM
T33 construct: purchased DiscoverX (KINOMEscan)
T33 sequence (P31749 whole entry): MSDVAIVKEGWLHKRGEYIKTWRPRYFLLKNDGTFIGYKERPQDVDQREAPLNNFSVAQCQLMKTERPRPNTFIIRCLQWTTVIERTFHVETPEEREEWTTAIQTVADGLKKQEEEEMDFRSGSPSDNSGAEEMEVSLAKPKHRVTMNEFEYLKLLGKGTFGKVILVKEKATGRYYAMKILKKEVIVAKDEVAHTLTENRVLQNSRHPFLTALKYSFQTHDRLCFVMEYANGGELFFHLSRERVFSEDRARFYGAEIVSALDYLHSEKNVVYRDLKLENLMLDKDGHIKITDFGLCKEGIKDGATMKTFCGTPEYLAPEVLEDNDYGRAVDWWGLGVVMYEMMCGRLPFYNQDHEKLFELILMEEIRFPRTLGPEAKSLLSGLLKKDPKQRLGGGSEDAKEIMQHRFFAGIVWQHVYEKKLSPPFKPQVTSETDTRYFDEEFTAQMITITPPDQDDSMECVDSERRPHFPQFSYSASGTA

DCAMKL1 = biological target: T34, DCAMKL1 (Homo sapiens, UniProt O15075); assay: kinome scan; format: binding; conditions: 10 µM
T34 construct: purchased DiscoverX (KINOMEscan)

PIK3CA(H1047L) = biological target: T35, PIK3CA(H1047L) (Homo sapiens, UniProt P42336, H1047L); assay: kinome scan; format: binding; conditions: 10 µM
T35 construct: purchased DiscoverX (KINOMEscan)

ACVR1B = biological target: T36, ACVR1B (Homo sapiens, UniProt P36896); assay: kinome scan; format: binding; conditions: 10 µM
T36 construct: purchased DiscoverX (KINOMEscan)

EPHB2 = biological target: T37, EPHB2 (Homo sapiens, UniProt P29323); assay: kinome scan; format: binding; conditions: 10 µM
T37 construct: purchased DiscoverX (KINOMEscan)

DAPK3 = biological target: T38, DAPK3 (Homo sapiens, UniProt O43293); assay: kinome scan; format: binding; conditions: 10 µM
T38 construct: purchased DiscoverX (KINOMEscan)

CDKL2 = biological target: T39, CDKL2 (Homo sapiens, UniProt Q92772); assay: kinome scan; format: binding; conditions: 10 µM
T39 construct: purchased DiscoverX (KINOMEscan)
T39 sequence (Q92772 whole entry): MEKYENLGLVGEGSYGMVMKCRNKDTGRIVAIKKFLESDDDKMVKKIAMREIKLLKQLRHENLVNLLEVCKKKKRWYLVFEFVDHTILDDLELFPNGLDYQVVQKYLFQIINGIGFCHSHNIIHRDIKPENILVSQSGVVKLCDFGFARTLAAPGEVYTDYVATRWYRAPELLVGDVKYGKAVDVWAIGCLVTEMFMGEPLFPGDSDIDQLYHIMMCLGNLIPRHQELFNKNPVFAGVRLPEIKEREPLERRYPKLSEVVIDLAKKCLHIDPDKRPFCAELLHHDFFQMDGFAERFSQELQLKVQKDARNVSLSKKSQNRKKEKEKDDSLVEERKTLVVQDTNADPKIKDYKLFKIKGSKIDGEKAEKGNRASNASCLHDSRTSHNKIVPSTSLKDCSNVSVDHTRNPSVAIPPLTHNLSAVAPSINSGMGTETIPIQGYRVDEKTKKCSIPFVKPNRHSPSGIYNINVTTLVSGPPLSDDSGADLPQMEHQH

AAK1 = biological target: T40, AAK1 (Homo sapiens, UniProt Q2M2I8); assay: kinome scan; format: binding; conditions: 10 µM
T40 construct: purchased DiscoverX (KINOMEscan)

FLT3(R834Q) = biological target: T41, FLT3(R834Q) (Homo sapiens, UniProt P36888, R834Q); assay: kinome scan; format: binding; conditions: 10 µM
T41 construct: purchased DiscoverX (KINOMEscan)

T1 sequence (O94806 whole entry): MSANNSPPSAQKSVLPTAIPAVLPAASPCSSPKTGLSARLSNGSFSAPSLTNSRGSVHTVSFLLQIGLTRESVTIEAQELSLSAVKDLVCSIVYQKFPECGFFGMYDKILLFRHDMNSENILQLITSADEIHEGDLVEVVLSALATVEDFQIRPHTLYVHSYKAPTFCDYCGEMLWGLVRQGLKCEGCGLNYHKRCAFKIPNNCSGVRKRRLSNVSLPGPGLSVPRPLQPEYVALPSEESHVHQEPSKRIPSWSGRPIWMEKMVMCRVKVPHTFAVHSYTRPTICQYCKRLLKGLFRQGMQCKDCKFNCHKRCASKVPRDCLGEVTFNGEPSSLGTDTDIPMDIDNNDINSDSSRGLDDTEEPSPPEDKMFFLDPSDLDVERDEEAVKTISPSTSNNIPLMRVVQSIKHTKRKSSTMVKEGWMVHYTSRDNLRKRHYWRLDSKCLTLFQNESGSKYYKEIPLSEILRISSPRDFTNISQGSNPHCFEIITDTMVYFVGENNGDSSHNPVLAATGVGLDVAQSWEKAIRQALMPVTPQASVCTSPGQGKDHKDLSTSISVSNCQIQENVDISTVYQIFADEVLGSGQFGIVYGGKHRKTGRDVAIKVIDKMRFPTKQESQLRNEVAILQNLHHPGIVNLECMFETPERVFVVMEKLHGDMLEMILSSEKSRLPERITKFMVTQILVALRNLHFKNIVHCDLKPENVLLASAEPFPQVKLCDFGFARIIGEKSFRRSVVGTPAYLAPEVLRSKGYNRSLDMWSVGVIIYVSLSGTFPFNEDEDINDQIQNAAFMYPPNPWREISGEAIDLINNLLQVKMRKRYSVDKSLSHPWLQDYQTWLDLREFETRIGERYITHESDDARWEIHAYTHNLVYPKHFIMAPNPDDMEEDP

Nc1ccc(N=Nc2ccccc2)c(N)n1 [phenazopyridine, 2,6-diamino-3-(phenylazo)pyridine]
kinase inhibition (PRKD3): 100
kinase inhibition (ARK5): 89
kinase inhibition [1]: 100
kinase inhibition (ULK1): 100
kinase inhibition (MAP4K3): 74
kinase inhibition (LKB1): 88
kinase inhibition (ABL1-nonphosphorylated): 86
kinase inhibition (FAK): 96
kinase inhibition (YANK1): 98
kinase inhibition (LATS1): 87
kinase inhibition (TESK1): 100
kinase inhibition (PIK3CA(H1047Y)): 100
kinase inhibition (PIP5K2B): 97
kinase inhibition (CDK8): 86
Kd (TYK2): 26 µM
kinase inhibition (SgK110): 100
kinase inhibition (PCTK3): 75
kinase inhibition (PDPK1): 100
kinase inhibition (TGFBR2): 66
kinase inhibition (LRRK2): 100
kinase inhibition (CLK3): 99
kinase inhibition (RIPK5): 68
kinase inhibition (CDK3): 100
kinase inhibition (MRCKA): 99
kinase inhibition (AURKC): 68
kinase inhibition (ASK1): 100
kinase inhibition (STK39): 100
kinase inhibition (CSNK1G1): 85
kinase inhibition (PRKX): 91
kinase inhibition (PHKG2): 100
kinase inhibition [2]: 100
kinase inhibition (IGF1R): 100
kinase inhibition (PKN2): 100
Concentration (Cruzain): 20 µM
kinase inhibition (AKT1): 99
kinase inhibition (DCAMKL1): 100
kinase inhibition (PIK3CA(H1047L)): 80
kinase inhibition (ACVR1B): 86
kinase inhibition (EPHB2): 70
kinase inhibition (DAPK3): 100
kinase inhibition (CDKL2): 85
kinase inhibition (AAK1): 79
remaining binding (% of control) (FLT3(R834Q)): 89
